The results in this text go back to PubChem BioAssay (NCI).

What all share (assay): NCI tumour cell line growth inhibition, 48 h
Assay [1] deals with DMS 273 small cell lung.
Assay [2] deals with HOP-18 NSCLC.
The subject of assay [3] is KM20L2 colon.
Assay [4] concerns SNB-78 CNS.
Assay [5] has as its system RXF-631 renal.
Assay [6] deals with XF 498 CNS.
The subject of assay [7] is MDA-N.
In assay [8] the test system is P388 leukemia.
The test system of assay [9] is P388/ADR leukemia.
The subject of assay [10] is SN12K1 renal.

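In this assay, cells in 96-well plates receive the compound at five concentrations for 48 hours. Endpoints are linearly interpolated between the surrounding concentrations. GI50 = concentration required for 50% inhibition of growth. TGI marks complete inhibition of growth.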

Take `O=C1C2C3CC4C5C3C1C5C1(SCCS1)C42` (centres undefined): the TGI in [1], in assay [2], in assay [3] and in assay [4] was above 100 µM each time.
Regarding `CC(=O)OC(C)(C)C1CC[C@]2(C)/C=C/C(C)C[C@@H](O)/C=C(\C)CC(O)C12` (some centres undefined), the TGI in assay [1], in assay [2], in [3], in assay [5] and in assay [4] was above 100 µM throughout.
For the compound `O=S1OC(c2ccccc2)(c2ccccc2)C(c2ccccc2)(c2ccccc2)O1`, the TGI in assay [1], in assay [2], in assay [3], in assay [5], in assay [4] and in assay [6] was above 100 µM throughout.
For the compound `Cn1cc(C2NC(=O)c3ccccc3N2)c2ccccc21` (centres undefined), the TGI in [7] stood at 0.591 µM.
On to `CS(=O)(=O)OCCN(CCOS(C)(=O)=O)c1ccc(C=Nc2ccc(-c3csc(COc4ccccc4)n3)cc2)cc1`, for which the TGI in assay [1] is 14.5 µM; in assay [2] it was 19.2 µM; in assay [3] it was 14.7 µM; in [7], 31 µM; in assay [4] it was 66.4 µM; in [6] it was 6.85 µM.
Turning to `COc1nc(NC2OC(COC(C)=O)C(OC(C)=O)C(OC(C)=O)C2OC(C)=O)c(N=CC=Nc2c(NC3OC(COC(C)=O)C(OC(C)=O)C(OC(C)=O)C3OC(C)=O)nc(OC)[nH]c2=O)c(=O)[nH]1` (centres undefined), the TGI in assay [2] and in assay [3] was above 100 µM each time.
For the compound `CC(=O)OCC1C(=O)OCC1C(=O)N1Cc2cc3ccccc3nc2C1` (centres undefined), the TGI in assay [1] stood at 17.8 µM; in assay [2] it was 10.2 µM; in assay [3] it was 11 µM; in assay [7], 13.1 µM; in assay [6], 4.51 µM.
In the case of `O=C(O)/C=C/c1ccc(O)c(O)c1`, the TGI in assay [1], in [2], in assay [3], in assay [5] and in assay [4] was above 100 µM each time.
For the compound `COC(=O)C(=O)C(C(=O)C(=O)Nc1ccc(Cl)c(Cl)c1)c1nc2ccc(C(=O)c3ccccc3)cc2[nH]c1=O` (centres undefined), in assay [7], the TGI is above 100 µM.
In the case of `CC(C)(CN1CCCCC1)C(=O)/C=C/c1ccccc1`, the TGI in assay [1] was determined as 36.5 µM; in assay [3], 28.1 µM; in [5] it was 59 µM; in assay [4], 80.9 µM; in assay [6] it was 29.9 µM.
On to `O=C(CCc1n[nH]c(=S)o1)Nc1cc(Cl)ccc1Cl`, for which the TGI was 36.1 µM in assay [1], above 100 µM in assay [2], above 100 µM in assay [3] and above 100 µM in assay [4].
As for `CC1(OCc2ccccc2)C(=O)N2C1NCC2(C)C` (centres undefined), the TGI in assay [1], in assay [3], in assay [5] and in assay [6] was above 100 µM in each case.
With `C/C(CN1C(=O)c2ccccc2C1=O)=N\NS(=O)(=O)c1ccc2ccccc2c1`, the TGI in [1], in assay [2], in [3] and in assay [4] was above 100 µM each time.
`O=C(/C=C/c1ccccc1)NC1C=Nc2ccc([N+](=O)[O-])cc2NC1=O` (centres undefined): the TGI in assay [1], in assay [3], in assay [4] and in assay [6] was above 100 µM in each case.
Consider `COC(=O)C(=O)C(C#N)c1nc2ccccc2s1` (centres undefined), for which the TGI in [1], in assay [3], in assay [5], in assay [4] and in assay [6] was above 100 µM throughout.
`Cc1cc(N(CCC#N)CCC#N)ccc1/C=C(\NC(=O)/C=C/c1ccccc1)C(=O)N=[N+]=[N-]`: the TGI in assay [1] is above 100 µM; in assay [3], above 100 µM; in [4] it was above 100 µM; in assay [6], 69.9 µM.
For `Cc1c2cnccc2c(C)c2c1c1ccccc1n2CCOC(=O)c1ccccc1`, the TGI in [1] was 18 µM; in assay [2], above 100 µM; in [3] it was 50.5 µM; in assay [7], above 100 µM; in assay [8], 41.4 µM; in assay [9] it was 35.1 µM. Moreover, the TGI in assay [10] is 26.6 µM; in assay [4] it was 85.4 µM; in assay [6], 5.64 µM.
Compound `CC1CCCCCC(=O)c2c(O)cc(O)cc2CC(=O)O1` (centres undefined) had a TGI in assay [7] above 100 µM.
On the same count and under the same terms, next, `O=C(O)/C=C\C(=O)Nc1ccc2c(c1)-c1ccccc1C2`: above 100 µM.
With `CC(=O)C1(O)CC2(c3ccccc3)C(=O)C1(c1ccccc1)C(c1ccccc1)=C2c1ccccc1` (centres undefined), the TGI in assay [1], in assay [3], in [5], in [4] and in assay [6] was above 100 µM each time.
With `C/C(=N/NC(=O)c1ccccc1S(N)(=O)=O)C(CN1CCCCC1)C(C1=C(O)C2C=CC=CC2OC1=O)c1ccccc1` (centres undefined), the TGI in [2], in assay [3], in [5], in [4] and in assay [6] was above 100 µM throughout.
Consider `COc1ccc2c(c1)[C@@H](NC(C)=O)CCc1cc(OC)c(OC)c(OC)c1-2`, for which the TGI in assay [1] is above 100 µM; in assay [2], above 100 µM; in [7] it was below 0.0204 µM; in assay [4], above 100 µM; in assay [6] it was 16.2 µM.
`C=CC1(C)CCC2C(=CCC3C2(C)CC(O)C(O)C3(C)COC2OC(CO)C(O)C(O)C2O)C1` (centres undefined) showed a TGI in assay [7] above 100 µM.
`Cc1ccc(S(=O)c2ccccc2[N+](=O)[O-])cc1` (centres undefined): the TGI in assay [1], in assay [5] and in assay [4] was above 100 µM throughout.
On to `CC(=O)N1C/C(=C\c2ccccc2)C(=O)/C(=C/c2ccccc2)C1`, for which the TGI in assay [1] is 12.1 µM; in assay [2] it was 32.9 µM; in assay [3] it was 39.5 µM; in [4] it was 53.4 µM; in assay [6], 49.3 µM.
Take `N#CC(C(=O)CCCC(=O)Nc1ccccc1[N+](=O)[O-])c1c(Cl)cccc1Cl` (centres undefined): the TGI in assay [1], in assay [2], in [3], in [5], in [4] and in [6] was above 100 µM throughout.
With `N/N=c1/nc2n(c3ncccc13)C=CNN2`, the TGI in [1], in assay [3], in assay [5] and in assay [6] was above 100 µM throughout.
Regarding `C[C@@H]1C(=O)CC2C(C)(C)CCC[C@]2(C)[C@@]12CC[C@]1(C=COC1)O2` (some centres undefined), the TGI in assay [1], in assay [2], in assay [3] and in assay [4] was above 100 µM each time.
As to `C[N+]1([O-])C2CCC1CC(OC(=O)C(CO)c1ccccc1)C2` (centres undefined), the TGI in [7] is above 100 µM.
For `CN(C)CC1CC/C(=C\c2ccc(Cl)c(Cl)c2)C1=O` (centres undefined), the TGI in assay [1] was above 51.9 µM; in assay [2] it was above 100 µM; in assay [3] it was above 50.2 µM; in assay [4], above 78.8 µM; in assay [6], above 65.4 µM.
In the case of `NC(N)NCCCc1cn2c(n1)C1CCCN1C(=O)C2Cc1ccccc1` (centres undefined), the TGI in assay [1], in assay [3], in assay [5], in assay [4] and in assay [6] was above 100 µM each time.
For the compound `O=C([CH-]C(=O)c1ccccc1)c1ccccc1.O=C([CH-]C(=O)c1ccccc1)c1ccccc1.O=C([CH-]C(=O)c1ccccc1)c1ccccc1.[Ga+3]`, in [2], the GI50 is 39.7 µM and the TGI was above 100 µM. Moreover, in [3], the GI50 is 59.2 µM and the TGI was above 100 µM.
On to `Cc1c(C(Cc2ccccc2N(C)C(=O)/C=C\C(=O)O)c2c[nH]c3ccccc23)c2ccccc2n1C` (centres undefined), for which the TGI in assay [1] came out at 32.7 µM; in assay [3], 32.7 µM; in [5], 27.9 µM; in [4], 53.8 µM; in [6], 36.9 µM.
